Values of other authors in US20140242195A1, “AUTOMOTIVE SURFACE CONDITIONING SYSTEM” (American Covers, Inc., priority 2013, published 2014).

Conditions: component of the composition

Vapor Pressure (mmHg)	Structure (SMILES)
0.07	CCOCCOCCO [CARBITOL, diethylene glycol monoethyl ether]
0.003	OCC(O)CO [Glycerin]
